Experimental findings from ChEMBL document CHEMBL4330097 (J Med Chem, 2019) are described below.

Values after ≈ are worked out from the molar mass of the structure shown.

Series [1] in a line: Apparent permeability across basolateral to apical side in human Caco2 cells at 2 uM after 2 hrs by LC-MS/MS analysis. The series is classed as ADME, cell-based. The following applies: Caco-2.
Series [2] can be described thus: Aqueous solubility of the compound in DMSO at 6.5 after 24 hrs by HPLC-MS/MS analysis. The class given is physicochemical. Particulars: aqueous medium with DMSO, pH 6.5.
A short description of series [3]: Apparent permeability across apical to basolateral side in human Caco2 cells at 2 uM after 2 hrs by LC-MS/MS analysis. The series is classed as ADME, cell-based. The following applies: Caco-2.
Series [4] in a line: Clearance in human liver microsomes at 1 uM up 60 mins in presence of NADP and glucose-6-phosphate by LC-MS/MS analysis. The series is classed as ADME, Microsome. The following applies: 1 h.
Series [5] can be described thus: Chemical stability of the compound assessed as degradation rate at pH 1 to 10 after 24 hrs by HPLC-UV analysis. The class given is physicochemical. Particulars: buffer, pH 1, 24 h.
Series [6] is described as follows: Maximal oral bioavailability in human. The series is classed as ADME, organism-based. The following applies: in vivo.
The nature of series [7]: Clearance in Han/Wistar rat hepatocytes at 1 uM up 90 mins by HPLC-MS/MS analysis. The series is classed as ADME, cell-based, Hepatocyte.
Series [8] can be described thus: Maximal oral bioavailability in Han/Wistar rat. The class given is ADME, organism-based. The following applies: in vivo.
Series [9] is described as follows: Lipophilicity, log D of the compound in acetonitrile/water at 1:1 ratio at pH 7.5 by RP-HPLC analysis. The series is classed as physicochemical. Particulars: acetonitrile/water 1:1 (RP-HPLC).

Turning to `CN1CCN(c2cnc3c(C4CCN(C(=O)c5ccc(OC(F)(F)F)cc5N)CC4)ncnc3c2)CC1` [BAY-885], the Papp B→A at 2 h, 2 µM in [1] came to 10.7 ×10⁻⁶ cm/s. The solubility at 24 h in [2] came to 218 µg/mL (≈ 423 µM). Further, the Papp A→B at 2 h, 2 µM in series [3] was 18.4 ×10⁻⁶ cm/s. In addition, the CLH in series [4] was found to be 13 mL/min/kg; in [7], 61.7 mL/min/kg. In series [5], the Stability entry is “Stable”. The Fmax in series [6] worked out at 38%; in series [8], 13%. The chromatographic logD in series [9] was determined as 2.4.
